Here are results for 15 compounds from patent publication US12084472B2 (Ardelyx, Inc., priority 2015, dated 2024).

Molecules are shown by their SMILES.

In the test the target is T1, human TGR5 (Homo sapiens, UniProt Q8TDU6).
T1 construct: expressed in transfected cells; host or cells: HEK293
T1 sequence (Q8TDU6 1-330): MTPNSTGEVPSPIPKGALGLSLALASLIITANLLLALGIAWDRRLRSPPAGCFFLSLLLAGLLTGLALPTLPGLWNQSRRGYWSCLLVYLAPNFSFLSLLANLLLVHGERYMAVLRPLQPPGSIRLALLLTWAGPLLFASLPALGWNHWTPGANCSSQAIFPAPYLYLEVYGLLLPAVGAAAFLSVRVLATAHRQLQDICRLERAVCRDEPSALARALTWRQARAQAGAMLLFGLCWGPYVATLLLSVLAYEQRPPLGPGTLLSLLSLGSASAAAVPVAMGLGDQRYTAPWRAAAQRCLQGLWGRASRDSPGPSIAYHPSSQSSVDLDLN
The test is described as follows: Cell-based TGR5 assay (cAMP generation, HTRF). The note with it: HEK293 cells stably transfected with human TGR5; cAMP by HTRF; 30 minutes at 37° C.; read-out: pEC50 Human TGR5 (converted). In a few lines:
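First, compounds in 3-fold serial dilution were placed in HBSS with 10 mM HEPES pH 7.4 and 0.5 mM IBMX. Next, human TGR5-expressing HEK293 cells were added and incubated 30 min at 37° C. Finally, cAMP was detected by HTRF and pEC50 derived by logistic fitting.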
In the case of `O=C(CCCCc1cc(Cl)c(COC2(c3cnccc3-c3ccccc3OC3CC3)CC2)cc1Cl)NCCN1CCN(CC(=O)NC[C@H](O)[C@@H](O)[C@H](O)[C@H](O)CO)CC1` [Compound I-99, 5-[2,5-dichloro-4-({1-[4-(2-cyclopropoxyphenyl)pyridin-3-yl]cyclopropoxy}methyl)phenyl]-N-{2-[4-({[(2S,3R,4R,5R)-2,3,4,5,6-pentahydroxyhexyl]carbamoyl}methyl)piperazin-1-yl]ethyl}pentanamide], the EC50 was below 100 nM.
Turning to `CN(C[C@H](O)[C@@H](O)[C@H](O)[C@H](O)CO)C(=O)CN1CCN(CCNC(=O)CCCCc2cc(Cl)c(COC3(c4cnccc4-c4ccccc4OC4CC4)CC3)cc2Cl)CC1` [Compound I-100, 5-[2,5-dichloro-4-({1-[4-(2-cyclopropoxyphenyl)pyridin-3-yl]cyclopropoxy}methyl)phenyl]-N-{2-[4-({methyl[(2S,3R,4R,5R)-2,3,4,5,6-pentahydroxyhexyl]carbamoyl}methyl)piperazin-1-yl]ethyl}pentanamide], the EC50 was below 100 nM.
As for `O=C(CCCCc1cc(Cl)c(COC2(c3cnccc3-c3ccccc3OC3CC3)CC2)cc1Cl)NCCCN1CCN(CCCNC(=O)CCCCc2cc(Cl)c(COC3(c4cnccc4-c4ccccc4OC4CC4)CC3)cc2Cl)CC1` [Compound I-101, 5-[2,5-dichloro-4-({1-[4-(2-cyclopropoxyphenyl)pyridin-3-yl]cyclopropoxy}methyl)phenyl]-N-{3-[4-(3-{5-[2,5-dichloro-4-({1-[4-(2-cyclopropoxyphenyl)pyridin-3-yl]cyclopropoxy}methyl)phenyl]pentanamido}propyl)piperazin-1-yl]propyl}pentanamide], the EC50 was 1260 to 10000 nM.
On to `O=C(O)CCC(CCC(=O)O)(CCC(=O)O)NC(=O)CCCCc1cc(Cl)c(COC2(c3cnccc3-c3ccccc3OC3CC3)CC2)cc1Cl` [Compound I-102, 4-(2-carboxyethyl)-4-{5-[2,5-dichloro-4-({1-[4-(2-cyclopropoxyphenyl)pyridin-3-yl]cyclopropoxy}methyl)phenyl]pentanamido}heptanedioic acid], for which the EC50 is 126 to 1000 nM.
The value for `O=C(CCCCc1cc(Cl)c(COC2(c3cnccc3-c3ccccc3OC3CC3)CC2)cc1Cl)N1CCN(C[C@H](O)[C@@H](O)[C@H](O[C@@H]2O[C@H](CO)[C@H](O)[C@H](O)[C@H]2O)[C@H](O)CO)CC1` [Compound I-103, 5-[2,5-dichloro-4-({1-[4-(2-cyclopropoxyphenyl)pyridin-3-yl]cyclopropoxy}methyl)phenyl]-1-{4-[(2S,3R,4R,5R)-2,3,5,6-tetrahydroxy-4-{[(2S,3R,4S,5R,6R)-3,4,5-trihydroxy-6-(hydroxymethyl)oxan-2-yl]oxy}hexyl]piperazin-1-yl}pentan-1-one] was below 100 nM; that for `O=C(CCCCc1cc(Cl)c(COC2(c3cnccc3-c3ccccc3OC3CC3)CC2)cc1Cl)NCC1O[C@H](CO)[C@@H](O)[C@H](O)[C@H]1O` (stereo partly drawn) [Compound I-104, 5-[2,5-dichloro-4-({1-[4-(2-cyclopropoxyphenyl)pyridin-3-yl]cyclopropoxy}methyl)phenyl]-N-{[(3R,4R,5S,6R)-3,4,5-trihydroxy-6-(hydroxymethyl)oxan-2-yl]methyl}pentanamide] was below 100 nM; that for `O=C(CCCCc1cc(Cl)c(COC2(c3cnccc3-c3ccccc3OC3CC3)CC2)cc1Cl)N(CCO)C[C@H](O)[C@@H](O)[C@H](O)[C@H](O)CO` [Compound I-105, 5-[2,5-dichloro-4-({1-[4-(2-cyclopropoxyphenyl)pyridin-3-yl]cyclopropoxy}methyl)phenyl]-N-(2-hydroxyethyl)-N-[(2S,3R,4R,5R)-2,3,4,5,6-pentahydroxyhexyl]pentanamide] was below 100 nM.
In the case of `Cc1cc(COC2(c3cnccc3-c3ccccc3OC3CC3)CC2)c(Cl)cc1CCCCNC(=O)N[C@@H](C(=O)O)[C@@H](O)[C@H](O)[C@H](O)CO` [Compound I-106, (2R,3R,4S,5R)-2-[({4-[5-chloro-4-({1-[4-(2-cyclopropoxyphenyl)pyridin-3-yl]cyclopropoxy}methyl)-2-methylphenyl]butyl}carbamoyl)amino]-3,4,5,6-tetrahydroxyhexanoic acid], the EC50 was below 100 nM.
Take `Cc1cc(COC2(c3cnccc3-c3ccccc3OC3CC3)CC2)c(Cl)cc1CCCCNC(=O)N(CCO)C[C@H](O)[C@@H](O)[C@H](O)[C@H](O)CO` [Compound I-107, 1-{4-[5-chloro-4-({1-[4-(2-cyclopropoxyphenyl)pyridin-3-yl]cyclopropoxy}methyl)-2-methylphenyl]butyl}-3-(2-hydroxyethyl)-3-[(2S,3R,4R,5R)-2,3,4,5,6-pentahydroxyhexyl]urea]: the EC50 was below 100 nM.
In the case of `CCN(C[C@H](O)[C@@H](O)[C@H](O)[C@H](O)CO)C(=O)CCCCc1cc(Cl)c(COC2(c3cnccc3-c3ccccc3OC3CC3)CC2)cc1Cl` [Compound I-108, 5-[2,5-dichloro-4-({1-[4-(2-cyclopropoxyphenyl)pyridin-3-yl]cyclopropoxy}methyl)phenyl]-N-ethyl-N-[(2S,3R,4R,5R)-2,3,4,5,6-pentahydroxyhexyl]pentanamide], the EC50 was below 100 nM.
For `Cc1cc(COC2(c3cnccc3-c3ccccc3OC3CC3)CC2)c(Cl)cc1CCCCNC(=O)NC[C@@H]1O[C@H](CO)[C@@H](O)[C@H](O)[C@H]1O` [Compound I-109, 3-{4-[5-chloro-4-({1-[4-(2-cyclopropoxyphenyl)pyridin-3-yl]cyclopropoxy}methyl)-2-methylphenyl]butyl}-1-{[(2S,3R,4R,5S,6R)-3,4,5-trihydroxy-6-(hydroxymethyl)oxan-2-yl]methyl}urea], the EC50 is below 100 nM.
Take `Cc1cc(COC2(c3cnccc3-c3ccccc3OC3CC3)CC2)c(Cl)cc1CCCCNC(=O)NC[C@@H]1O[C@H](C(=O)O)[C@@H](O)[C@H](O)[C@H]1O` [Compound I-110, (2S,3S,4R,5R,6S)-6-{[({4-[5-chloro-4-({1-[4-(2-cyclopropoxyphenyl)pyridin-3-yl]cyclopropoxy}methyl)-2-methylphenyl]butyl}carbamoyl)amino]methyl}-3,4,5-trihydroxyoxane-2-carboxylic acid]: the EC50 is below 100 nM.
For `Cc1cc(COC2(c3cnccc3-c3ccccc3OC3CC3)CC2)c(Cl)cc1CCCCNC(=O)NCC(=O)NCC(=O)NCC(=O)O` [Compound I-111, 2-(2-{2-[({4-[5-chloro-4-({1-[4-(2-cyclopropoxyphenyl)pyridin-3-yl]cyclopropoxy}methyl)-2-methylphenyl]butyl}carbamoyl)amino]acetamido}acetamido)acetic acid], the EC50 was below 100 nM.
Regarding `Cc1cc(COC2(c3cnccc3-c3ccccc3OC3CC3)CC2)c(Cl)cc1CCCCNC(=O)N[C@@H](C)C(=O)N[C@@H](C)C(=O)N[C@@H](C)C(=O)O` [Compound I-112, (2S)-2-[(2S)-2-[(2S)-2-[({4-[5-chloro-4-({1-[4-(2-cyclopropoxyphenyl)pyridin-3-yl]cyclopropoxy}methyl)-2-methylphenyl]butyl}carbamoyl)amino]propanamido]propanamido]propanoic acid], the EC50 is below 100 nM.
Next, `Cc1cc(COC2(c3cnccc3-c3ccccc3OC3CC3)CC2)c(Cl)cc1CCCCNC(=O)N[C@@H](CCCNC(=N)N)C(=O)O` [Compound I-113, (2S)-5-carbamimidamido-2-[({4-[5-chloro-4-({1-[4-(2-cyclopropoxyphenyl)pyridin-3-yl]cyclopropoxy}methyl)-2-methylphenyl]butyl}carbamoyl)amino]pentanoic acid]: below 100 nM.
